Data taken from patent publication US20260023070A1, “OPTOGENETIC ALPHA-SYNUCLEIN AGGREGATION SYSTEM-BASED COMPOUND SCREENING PLATFORM IN PD-hiPSC-mDA NEURONS” (The Johns Hopkins University, priority 2022, published 2026).

Experiments:
[1] = tested on: human PD iPSC-derived mDA neurons treated with α-syn PFF; assay: α-syn PFF model in non-OASIS human PD hiPSC-derived mDA neurons (TX-insoluble pS129-α-syn); format: cell-based; details: α-syn PFF with compound for 14 days
Method: To validate the effects of these two compounds on the OASIS-independent model, α-syn PFF were treated with mouse primary neurons and non-OASIS-human PD hiPSC-derived mDA neurons with CDC 021 and BAG 956.

[2] = tested on: PI3K-PDK1/AKT/mTOR signaling pathway; assay: PI3K/PDK1 downstream target phosphorylation in ventral midbrain of α-syn PFF-injected mice; format: in vivo, mouse
Text: Since PI3K-PDK1/AKT/mTOR signaling pathway plays a critical role in regulation of autophagy, it was investigated the effects of BAG 956 treatments on PFF models. […] Taken together, BAG 956 may act as an autophagy-enhancing drug through inhibition of the PI3K-PDK1/AKT/mTOR signaling pathway (FIG. 18I).

[3] = tested on: tau-PFF injected mice; assay: tau-PFF injected mice, AT8 immunofluorescence in dentate gyrus; format: in vivo
Method: To find in vivo efficacy in a pilot exponential set and set a drug dosage, an in vivo experiment with the tau-PFF injected mice with DMSO or BAG treatment ([…]) was performed. Intraperitoneal injection of different concentrations (0, 5, 10 mg/kg) of BAG was given for one month, once every two days. Immunofluorescence staining results of AT8 in the dentate gyrus of C57bl/6j mice (3 per group) after injection of K18-tau PFF (5 μg/kg) into the hippocampus for two months was performed (data not shown).

Cc1nc2cnc3ccc(C#Cc4cccnc4)cc3c2n1-c1ccc(C(C)(C)C#N)cc1 [BAG 956]
TX-insoluble pS129-α-syn [1]: significant decrease
pS473-AKT ([2]; α-syn PFF injected mice, normalized to pan-AKT): reduced
Phosphorylation of PDK1 downstream targets PI3K, AKT, S6K, and mTOR ([2]; α-syn PFF-injected mice, 2 mg/kg or 10 mg/kg): significantly reduced
toxicity ([3]; 10 μg/kg dosage as printed): without noticeable toxicity
levels of the AT8+ phosphorylated-tau ([3]; intraperitoneal, once every two days for one month, 5 and 10 mg/kg): significantly decreased
